Source: US8952024B2, “Herbicidal pyrimidone derivatives” (E I du Pont de Nemours and Company, priority 2009, dated 2015)

What was measured:
Type in all cases: in vivo
[1] = system: cocklebur (Xanthium strumarium); assay: Test B pre-/postemergence plant response; conditions: Preemergence
In short: (§1)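 Each species received compound formulated in non-phytotoxic solvent with surfactant, either at planting into a loam and sand blend or as a foliar spray once plants reached 2 to 18 cm in peat-based medium. Plants stayed in the greenhouse 13 to 15 days before visual evaluation against controls, scored 0 (no effect) to 100 (complete control).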

kochia (Kochia scoparia) = assay: Test B pre-/postemergence plant response; conditions: Postemergence
In short: as §1

[2] = system: blackgrass (Alopecurus myosuroides); assay: Test B pre-/postemergence plant response
In short: as §1

[3] = system: wheat (Triticum aestivum); assay: Test B pre-/postemergence plant response
In short: as §1

[4] = system: bermudagrass (Cynodon dactylon); assay: Test B pre-/postemergence plant response
In short: as §1

wild oat (Avena fatua) = assay: Test B pre-/postemergence plant response
In short: as §1

[5] = system: giant foxtail (Setaria faberii); assay: Test B pre-/postemergence plant response
In short: as §1

[6] = system: downy bromegrass (Bromus tectorum); assay: Test B pre-/postemergence plant response
In short: as §1

[7] = system: velvetleaf (Abutilon theophrasti); assay: Test B pre-/postemergence plant response
In short: as §1

[8] = system: yellow nutsedge (Cyperus esculentus); assay: Test B pre-/postemergence plant response
In short: as §1

[9] = system: green foxtail (Setaria viridis); assay: Test B pre-/postemergence plant response
In short: as §1

[10] = system: morningglory (Ipomoea coccinea); assay: Test B pre-/postemergence plant response
In short: as §1

soybean (Glycine max) = assay: Test B pre-/postemergence plant response
In short: as §1

[11] = system: johnsongrass (Sorghum halepense); assay: Test B pre-/postemergence plant response
In short: as §1

[12] = system: ragweed (common ragweed, Ambrosia elatior); assay: Test B pre-/postemergence plant response
In short: as §1

[13] = system: canarygrass (Phalaris minor); assay: Test B postemergence plant response; conditions: Postemergence
In short: (§2)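 Visual ratings from 0 (no effect) to 100 (complete control), made against controls 13–15 days after treatment, kept in a greenhouse. Compounds were applied postemergence to potted plants at the 1- to 4-leaf stage (2–18 cm).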

[14] = system: windgrass (Apera spica-venti); assay: Test B postemergence plant response; conditions: Postemergence
In short: as §2

[15] = system: chickweed (Stellaria media); assay: Test B postemergence plant response; conditions: Postemergence
In short: as §2

[16] = 31 g ai/ha, 0 to 100 scale (0 no effect, 100 complete control)
[17] = 125 g ai/ha, scale 0 to 100 (0 no effect, 100 complete control)
[18] = 250 g ai/ha, scale 0 to 100 (0 no effect, 100 complete control), 13 to 15 days
[19] = 62 g ai/ha, scale 0 to 100 (0 no effect, 100 complete control)
[20] = Postemergence, 31 g ai/ha, 0 to 100 scale (0 no effect, 100 complete control)
[21] = Postemergence, 125 g ai/ha, scale 0 to 100 (0 no effect, 100 complete control)
[22] = Postemergence, 250 g ai/ha, scale 0 to 100 (0 no effect, 100 complete control), 13 to 15 days
[23] = Postemergence, 62 g ai/ha, scale 0 to 100 (0 no effect, 100 complete control)
[24] = Preemergence, 31 g ai/ha, scale 0 to 100 (0 no effect, 100 complete control)
[25] = Preemergence, 62 g ai/ha, scale 0 to 100, 0 no effect, 100 complete control
[26] = Preemergence, 125 g ai/ha, scale 0 to 100, 0 no effect, 100 complete control
[27] = Preemergence, 250 g ai/ha, 0 to 100 scale

CCc1cccc(-n2c(-c3ccccc3)ncc(C(=O)C3=C(O)CCCC3=O)c2=O)c1 [Compound 220]
Plant response rating, Cocklebur ([1]; 31 g ai/ha, scale 0 to 100 (0 no effect, 100 complete control)): 0 | Plant response rating, Cocklebur ([1]; 62 g ai/ha, scale 0 to 100, 0 no effect, 100 complete control): 0 | Cocklebur plant response rating ([1]; 250 g ai/ha, 0 to 100 scale): 0 | Plant response rating, Kochia (kochia (Kochia scoparia); [16]): 45 | Plant response rating, Kochia (kochia (Kochia scoparia); [17]): 75 | Plant response rating, Kochia (kochia (Kochia scoparia); [18]): 100 | Plant response rating, Kochia (kochia (Kochia scoparia); [19]): 65 | Plant response rating, Blackgrass [2, 20]: 10 | Plant response rating, Blackgrass [2, 21]: 30 | Plant response rating, Blackgrass [2, 22]: 40 | Plant response rating, Blackgrass [2, 23]: 20 | Plant response rating, Blackgrass [2, 24]: 10 | Plant response rating, Blackgrass [2, 25]: 20 | Plant response rating, Blackgrass [2, 26]: 20 | Blackgrass plant response rating [2, 27]: 35 | Plant response rating, Wheat [3, 20]: 0 | Plant response rating, Wheat [3, 22]: 15 | Plant response rating, Wheat [3, 23]: 0 | Plant response rating, Wheat [3, 24]: 0 | Plant response rating, Wheat [3, 25]: 0 | Plant response rating, Wheat [3, 26]: 0 | Wheat plant response rating [3, 27]: 5 | Plant response rating, Bermudagrass [4, 20]: 80 | Plant response rating, Bermudagrass [4, 21]: 98 | Plant response rating, Bermudagrass [4, 22]: 100 | Plant response rating, Bermudagrass [4, 23]: 95 | Plant response rating, Bermudagrass [4, 24]: 80 | Plant response rating, Bermudagrass [4, 25]: 98 | Plant response rating, Bermudagrass [4, 26]: 98 | Bermudagrass plant response rating ([4]; Preemergence, 250 g ai/ha, 0 to 100 scale, 0 no effect, 100 complete control): 100 | Plant response rating, Oat, Wild (wild oat (Avena fatua); [20]): 10 | Plant response rating, Oat, Wild (wild oat (Avena fatua); [22]): 50 | Plant response rating, Oat, Wild (wild oat (Avena fatua); [23]): 20 | Plant response rating, Oat, Wild (wild oat (Avena fatua); [25]): 0 | Plant response rating, Oat, Wild (wild oat (Avena fatua); [26]): 0 | Oat, Wild plant response rating (wild oat (Avena fatua); [27]): 60 | Plant response rating, Foxtail, Giant [5, 20]: 30 | Plant response rating, Foxtail, Giant [5, 21]: 55 | Plant response rating, Foxtail, Giant [5, 22]: 95 | Plant response rating, Foxtail, Giant [5, 23]: 50 | Plant response rating, Foxtail, Giant [5, 24]: 0 | Plant response rating, Foxtail, Giant [5, 25]: 0 | Plant response rating, Foxtail, Giant [5, 26]: 0 | Foxtail, Giant plant response rating [5, 27]: 75 | Plant response rating, Bromegrass, Downy [6, 20]: 10 | Plant response rating, Bromegrass, Downy [6, 21]: 15 | Plant response rating, Bromegrass, Downy [6, 22]: 30 | Plant response rating, Bromegrass, Downy [6, 23]: 10 | Plant response rating, Bromegrass, Downy [6, 24]: 0 | Plant response rating, Bromegrass, Downy [6, 25]: 0 | Plant response rating, Bromegrass, Downy [6, 26]: 0 | Bromegrass, Downy plant response rating [6, 27]: 5 | Plant response rating, Velvetleaf [7, 20]: 80 | Plant response rating, Velvetleaf [7, 22]: 100 | Plant response rating, Velvetleaf [7, 23]: 90 | Plant response rating, Velvetleaf [7, 24]: 45 | Plant response rating, Velvetleaf [7, 25]: 70 | Plant response rating, Velvetleaf [7, 26]: 90 | Velvetleaf plant response rating [7, 27]: 100 | Plant response rating, Nutsedge, Yellow [8, 20]: 10 | Plant response rating, Nutsedge, Yellow [8, 21]: 25 | Plant response rating, Nutsedge, Yellow [8, 22]: 55 | Plant response rating, Nutsedge, Yellow [8, 23]: 25 | Plant response rating, Nutsedge, Yellow [8, 24]: 0 | Plant response rating, Nutsedge, Yellow [8, 25]: 0 | Plant response rating, Nutsedge, Yellow [8, 26]: 60 | Nutsedge, Yellow plant response rating [8, 27]: 90 | Plant response rating, Foxtail, Green [9, 20]: 60 | Plant response rating, Foxtail, Green [9, 21]: 80 | Plant response rating, Foxtail, Green [9, 22]: 90 | Plant response rating, Foxtail, Green [9, 23]: 65 | Plant response rating, Foxtail, Green [9, 24]: 80 | Plant response rating, Foxtail, Green [9, 25]: 90 | Foxtail, Green plant response rating [9, 27]: 100 | Plant response rating, Morningglory [10, 20]: 65 | Plant response rating, Morningglory [10, 21]: 98 | Plant response rating, Morningglory [10, 22]: 100 | Plant response rating, Morningglory [10, 23]: 65 | Plant response rating, Morningglory [10, 24]: 0 | Plant response rating, Morningglory [10, 25]: 0 | Plant response rating, Morningglory [10, 26]: 0 | Morningglory plant response rating [10, 27]: 90 | Plant response rating, Soybean (soybean (Glycine max); [20]): 80 | Plant response rating, Soybean (soybean (Glycine max); [22]): 100 | Plant response rating, Soybean (soybean (Glycine max); [23]): 85 | Plant response rating, Soybean (soybean (Glycine max); [25]): 0 | Plant response rating, Soybean (soybean (Glycine max); [26]): 0 | Soybean plant response rating (soybean (Glycine max); [27]): 75 | Plant response rating, Johnsongrass [11, 20]: 60 | Plant response rating, Johnsongrass [11, 21]: 80 | Plant response rating, Johnsongrass [11, 22]: 90 | Plant response rating, Johnsongrass [11, 23]: 65 | Plant response rating, Johnsongrass [11, 24]: 0 | Plant response rating, Johnsongrass [11, 25]: 0 | Plant response rating, Johnsongrass [11, 26]: 0 | Johnsongrass plant response rating [11, 27]: 80 | Plant response rating, Ragweed [12, 20]: 90 | Plant response rating, Ragweed [12, 22]: 98 | Plant response rating, Ragweed [12, 23]: 95 | Plant response rating, Ragweed [12, 24]: 15 | Plant response rating, Ragweed [12, 25]: 60 | Plant response rating, Ragweed [12, 26]: 80 | Ragweed plant response rating [12, 27]: 95 | Plant response rating, Canarygrass [13, 16]: 10 | Plant response rating, Canarygrass [13, 17]: 10 | Plant response rating, Canarygrass [13, 18]: 30 | Plant response rating, Canarygrass [13, 19]: 10 | Plant response rating, Windgrass [14, 16]: 5 | Plant response rating, Windgrass [14, 18]: 60 | Plant response rating, Windgrass [14, 19]: 40 | Plant response rating, Chickweed [15, 16]: 95 | Plant response rating, Chickweed [15, 17]: 98 | Plant response rating, Chickweed [15, 18]: 100 | Plant response rating, Chickweed [15, 19]: 95
